Test results published in patent EP4722207A1, “OXOISOINDOLINYL-SUBSTITUTED TETRAHYDROPYRIMIDINEDIONE DERIVATIVE AND USE THEREOF” (Gluetacs Therapeutics (Shanghai) Co., Ltd., priority 2023, dated 2024).

How the values were obtained:
[1] = tested on: MV-4-11; assay: Cell viability assay (CellTiter-Meiluncell Luminescent), tumor cell proliferation, MV-4-11; conditions: Homo sapiens, MV4-11, 96 h; for inhibition at 0.01 µM: read-out: Inhibition Rate at 10 nM (%); for inhibition at 0.5 µM: read-out: Inhibition Rate at 500 nM (%); for IC50: read-out: inhibitory activity (IC50, nM) against tumor cells proliferation, MV-4-11
Method: The tumor cells used herein were cultured in a cell culture medium listed in table 2 at 37°C in an incubator with 5% CO2. Prior to experimentation, all cell lines used were correctly identified by STR profiling, and tested negative for mycoplasma contamination using a mycoplasma detection kit through routine screenings.
On the following day, the test compounds of the present disclosure were subjected to serial dilution. […] Subsequently, 0.5 µL of the test compound dilution was transferred into the 96-well plate containing the cells, with each well containing 100 µL of cell culture medium. […] Into the 96-well plate, the diluted test compounds and corresponding detection reagents were added, resulting in final test compound concentrations of 500 nM and 10 nM, respectively. The experimental procedure is described below using the diluted 2 µM test compound as an example.
After the cells were treated with the compounds of the present disclosure for a specified period, the cell viability assay reagent was added to the culture medium according to the kit's instructions to determine cell viability. […] All controls were treated using the same procedure as the compounds of the present disclosure. The growth inhibition curves for the compounds of the present disclosure were plotted using Prism GraphPad software, and the IC50 values were calculated therefrom.

[2] = molecular target: T1, IKZF1 (Homo sapiens, UniProt Q13422+Q96SW2); assay: Western-blot assay, substrate protein degradation in hPBMCs: IKZF1; type: cell-based; conditions: for substrate protein remaining % IKZF1: 24 hours of compound treatment, 50 nM and 500 nM; for IKZF1 substrate protein remaining %: compounds at 50 nM and 500 nM, 24 hours
T1 construct: effects of the compounds of the present disclosure on the expression of target proteins in cells; endogenous in cells; host or cells: human PBMCs (hPBMCs)
T1 sequence (Q13422 whole entry): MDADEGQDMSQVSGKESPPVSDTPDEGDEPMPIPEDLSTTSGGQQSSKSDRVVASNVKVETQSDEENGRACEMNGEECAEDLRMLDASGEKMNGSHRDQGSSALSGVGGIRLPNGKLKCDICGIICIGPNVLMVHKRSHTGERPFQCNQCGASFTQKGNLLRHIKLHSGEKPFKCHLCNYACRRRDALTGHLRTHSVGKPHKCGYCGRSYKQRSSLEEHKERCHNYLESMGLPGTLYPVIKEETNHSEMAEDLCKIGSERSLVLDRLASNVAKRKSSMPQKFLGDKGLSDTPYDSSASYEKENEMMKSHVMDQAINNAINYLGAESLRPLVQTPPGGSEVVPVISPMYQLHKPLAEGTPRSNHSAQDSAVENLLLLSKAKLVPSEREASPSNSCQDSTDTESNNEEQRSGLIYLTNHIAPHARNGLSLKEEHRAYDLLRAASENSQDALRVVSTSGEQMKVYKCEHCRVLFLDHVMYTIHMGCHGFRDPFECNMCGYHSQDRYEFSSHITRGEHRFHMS
T1 sequence (Q96SW2 whole entry): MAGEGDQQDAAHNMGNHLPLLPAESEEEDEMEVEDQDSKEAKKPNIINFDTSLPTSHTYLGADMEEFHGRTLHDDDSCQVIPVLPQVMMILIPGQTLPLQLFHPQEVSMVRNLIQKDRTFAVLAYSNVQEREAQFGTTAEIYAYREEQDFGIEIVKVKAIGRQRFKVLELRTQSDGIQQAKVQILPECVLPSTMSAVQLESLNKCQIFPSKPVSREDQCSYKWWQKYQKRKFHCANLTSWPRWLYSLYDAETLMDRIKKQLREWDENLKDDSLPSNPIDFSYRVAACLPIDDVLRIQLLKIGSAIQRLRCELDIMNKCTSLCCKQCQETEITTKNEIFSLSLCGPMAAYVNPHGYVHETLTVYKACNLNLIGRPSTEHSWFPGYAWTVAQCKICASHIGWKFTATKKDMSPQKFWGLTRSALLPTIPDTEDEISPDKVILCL
T1 sequence (Q16531 whole entry partner): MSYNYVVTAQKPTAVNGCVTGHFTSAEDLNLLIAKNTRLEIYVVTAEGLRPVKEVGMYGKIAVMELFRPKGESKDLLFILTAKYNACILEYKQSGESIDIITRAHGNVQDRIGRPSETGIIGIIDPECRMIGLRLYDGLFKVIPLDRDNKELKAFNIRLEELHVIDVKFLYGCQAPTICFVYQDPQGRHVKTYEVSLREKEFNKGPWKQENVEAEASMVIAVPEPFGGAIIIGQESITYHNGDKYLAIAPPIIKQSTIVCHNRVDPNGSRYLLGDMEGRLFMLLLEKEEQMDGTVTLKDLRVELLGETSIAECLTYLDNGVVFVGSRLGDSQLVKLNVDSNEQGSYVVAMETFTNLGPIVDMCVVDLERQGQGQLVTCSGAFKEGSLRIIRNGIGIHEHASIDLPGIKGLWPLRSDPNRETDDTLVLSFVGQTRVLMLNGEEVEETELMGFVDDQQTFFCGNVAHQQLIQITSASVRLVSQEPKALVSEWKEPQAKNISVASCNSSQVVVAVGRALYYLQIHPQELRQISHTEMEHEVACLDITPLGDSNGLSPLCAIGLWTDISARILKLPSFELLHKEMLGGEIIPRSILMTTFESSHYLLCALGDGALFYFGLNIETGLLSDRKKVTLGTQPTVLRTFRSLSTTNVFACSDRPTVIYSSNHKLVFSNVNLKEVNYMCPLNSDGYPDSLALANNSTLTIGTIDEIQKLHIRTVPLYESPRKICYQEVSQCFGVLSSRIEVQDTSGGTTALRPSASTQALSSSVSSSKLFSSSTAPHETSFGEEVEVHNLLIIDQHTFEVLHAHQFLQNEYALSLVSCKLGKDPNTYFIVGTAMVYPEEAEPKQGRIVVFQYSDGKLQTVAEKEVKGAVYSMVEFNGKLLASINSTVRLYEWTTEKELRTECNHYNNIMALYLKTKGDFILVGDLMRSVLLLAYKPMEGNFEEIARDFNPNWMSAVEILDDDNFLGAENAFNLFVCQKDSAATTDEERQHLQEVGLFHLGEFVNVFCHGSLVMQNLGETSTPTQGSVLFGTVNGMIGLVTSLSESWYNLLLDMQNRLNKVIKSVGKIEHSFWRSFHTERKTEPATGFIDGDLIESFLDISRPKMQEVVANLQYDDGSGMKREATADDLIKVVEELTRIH

[3] = molecular target: T2, CK1α (Homo sapiens, UniProt P48729+Q96SW2); assay: Western-blot assay, substrate protein degradation in hPBMCs: CK1α; type: cell-based; conditions: for substrate protein remaining % CK1α: 24 hours of compound treatment, 50 nM and 500 nM; for CK1α substrate protein remaining %: compounds at 50 nM and 500 nM, 24 hours
T2 construct: effects of the compounds of the present disclosure on the expression of target proteins in cells; endogenous in cells; host or cells: human PBMCs (hPBMCs)
T2 sequence (P48729 whole entry): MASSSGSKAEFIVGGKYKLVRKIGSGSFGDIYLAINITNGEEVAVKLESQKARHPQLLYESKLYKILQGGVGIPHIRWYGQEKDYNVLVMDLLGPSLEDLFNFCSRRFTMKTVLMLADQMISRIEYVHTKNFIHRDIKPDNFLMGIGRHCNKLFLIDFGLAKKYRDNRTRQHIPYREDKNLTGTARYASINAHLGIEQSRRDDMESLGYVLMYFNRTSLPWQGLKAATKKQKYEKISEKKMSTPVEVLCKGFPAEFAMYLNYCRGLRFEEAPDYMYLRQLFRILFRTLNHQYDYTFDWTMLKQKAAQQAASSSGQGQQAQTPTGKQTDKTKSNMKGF
T2 sequence (Q96SW2 whole entry): as the sequence (Q96SW2 whole entry) above
T2 sequence (Q16531 whole entry partner): as the sequence (Q16531 whole entry partner) above

[4] = molecular target: T3, IKZF2 (Homo sapiens, UniProt Q96SW2+Q9UKS7); assay: Western-blot assay, substrate protein degradation in hPBMCs: IKZF2; type: cell-based; conditions: for substrate protein remaining % IKZF2: 24 hours of compound treatment, 50 nM and 500 nM; for IKZF2 substrate protein remaining %: compounds at 50 nM and 500 nM, 24 hours
T3 construct: effects of the compounds of the present disclosure on the expression of target proteins in cells; endogenous in cells; host or cells: human PBMCs (hPBMCs)
T3 sequence (Q9UKS7 whole entry): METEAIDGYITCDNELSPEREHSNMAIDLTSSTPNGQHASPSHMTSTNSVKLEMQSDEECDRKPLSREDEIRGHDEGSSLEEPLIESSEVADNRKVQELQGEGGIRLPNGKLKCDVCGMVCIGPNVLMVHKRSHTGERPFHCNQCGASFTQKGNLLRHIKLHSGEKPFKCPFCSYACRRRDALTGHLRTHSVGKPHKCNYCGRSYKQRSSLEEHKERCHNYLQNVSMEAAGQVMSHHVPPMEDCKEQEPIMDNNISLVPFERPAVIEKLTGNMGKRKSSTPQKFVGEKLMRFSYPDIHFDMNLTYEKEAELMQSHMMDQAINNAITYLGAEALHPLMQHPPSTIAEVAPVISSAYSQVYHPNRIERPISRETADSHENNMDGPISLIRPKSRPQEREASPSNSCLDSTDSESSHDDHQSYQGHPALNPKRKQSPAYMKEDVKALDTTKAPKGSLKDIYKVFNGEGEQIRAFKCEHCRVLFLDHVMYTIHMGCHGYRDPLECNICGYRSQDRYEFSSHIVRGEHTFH
T3 sequence (Q96SW2 whole entry): as the sequence (Q96SW2 whole entry) above
T3 sequence (Q16531 whole entry partner): as the sequence (Q16531 whole entry partner) above

[5] = molecular target: T4, GSPT1 (Homo sapiens, UniProt P15170+Q96SW2); assay: Western-blot assay, substrate protein degradation in hPBMCs: GSPT1; type: cell-based; conditions: for substrate protein remaining % GSPT1: 24 hours of compound treatment, 50 nM and 500 nM; for GSPT1 substrate protein remaining %: compounds at 50 nM and 500 nM, 24 hours
T4 construct: effects of the compounds of the present disclosure on the expression of target proteins in cells; endogenous in cells; host or cells: human PBMCs (hPBMCs)
T4 sequence (P15170 whole entry): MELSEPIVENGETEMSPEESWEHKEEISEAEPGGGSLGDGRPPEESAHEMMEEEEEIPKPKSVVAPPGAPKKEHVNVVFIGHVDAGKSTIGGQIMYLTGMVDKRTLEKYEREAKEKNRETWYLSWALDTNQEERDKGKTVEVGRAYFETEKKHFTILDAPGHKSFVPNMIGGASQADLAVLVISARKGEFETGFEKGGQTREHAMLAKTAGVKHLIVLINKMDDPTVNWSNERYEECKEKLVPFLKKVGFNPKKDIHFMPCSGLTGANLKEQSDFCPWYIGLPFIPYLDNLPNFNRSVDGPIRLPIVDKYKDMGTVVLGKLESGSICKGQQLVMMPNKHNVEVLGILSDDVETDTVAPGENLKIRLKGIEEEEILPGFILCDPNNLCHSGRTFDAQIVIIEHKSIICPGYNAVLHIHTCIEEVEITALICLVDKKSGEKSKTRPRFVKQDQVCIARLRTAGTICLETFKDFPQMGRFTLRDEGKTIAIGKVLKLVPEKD
T4 sequence (Q96SW2 whole entry): as the sequence (Q96SW2 whole entry) above
T4 sequence (Q16531 whole entry partner): as the sequence (Q16531 whole entry partner) above

[6] = molecular target: T5, WEE1 (Homo sapiens, UniProt P30291+Q96SW2); assay: Western-blot assay, substrate protein degradation in hPBMCs: WEE1; type: cell-based; conditions: for substrate protein remaining % WEE1: 24 hours of compound treatment, 50 nM and 500 nM; for WEE1 substrate protein remaining %: compounds at 50 nM and 500 nM, 24 hours
T5 construct: effects of the compounds of the present disclosure on the expression of target proteins in cells; endogenous in cells; host or cells: human PBMCs (hPBMCs)

[7] = molecular target: T6, IKZF3 (Homo sapiens, UniProt Q96SW2+Q9UKT9); assay: Western-blot assay, substrate protein degradation in hPBMCs: IKZF3; type: cell-based; conditions: for substrate protein remaining % IKZF3: 24 hours of compound treatment, 50 nM and 500 nM; for IKZF3 substrate protein remaining %: compounds at 50 nM and 500 nM, 24 hours
T6 construct: effects of the compounds of the present disclosure on the expression of target proteins in cells; endogenous in cells; host or cells: human PBMCs (hPBMCs)
T6 sequence (Q9UKT9 whole entry): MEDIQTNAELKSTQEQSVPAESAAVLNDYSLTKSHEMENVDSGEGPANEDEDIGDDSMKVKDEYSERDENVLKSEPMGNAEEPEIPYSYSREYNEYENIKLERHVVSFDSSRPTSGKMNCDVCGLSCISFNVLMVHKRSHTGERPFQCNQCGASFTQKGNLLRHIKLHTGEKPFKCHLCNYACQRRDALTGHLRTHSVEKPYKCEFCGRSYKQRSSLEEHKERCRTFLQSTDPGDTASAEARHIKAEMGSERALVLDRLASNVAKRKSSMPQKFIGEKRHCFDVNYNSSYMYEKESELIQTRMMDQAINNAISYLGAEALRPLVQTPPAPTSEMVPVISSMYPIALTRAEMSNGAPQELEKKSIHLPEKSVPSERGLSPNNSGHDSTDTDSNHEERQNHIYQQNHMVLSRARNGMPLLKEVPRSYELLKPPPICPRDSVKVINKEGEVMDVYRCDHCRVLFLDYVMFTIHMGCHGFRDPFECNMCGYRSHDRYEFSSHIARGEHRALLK
T6 sequence (Q96SW2 whole entry): as the sequence (Q96SW2 whole entry) above
T6 sequence (Q16531 whole entry partner): as the sequence (Q16531 whole entry partner) above

## O=C1CCN(N2Cc3cc(CN4CCN(c5ncnc6sc7c(c56)CCCC7)CC4)ccc3C2=O)C(=O)N1 [GT-08077, 1-(1-oxo-5-((4-(5,6,7,8-tetrahydrobenzo[4,5]thieno[2,3-d]pyrimidin-4-yl)piperazin-1-yl)methyl)isoindolin-2-yl)dihydropyrimidine-2,4(1H,3H)-dione]
[1]
  inhibition at 0.01 µM: 25 to 30%
  inhibition at 0.5 µM: 25 to 30%
[2]
  substrate protein remaining % IKZF1: B (80%< substrate protein remaining %≤ 100%)
[3]
  substrate protein remaining % CK1α: A (0% ≤ substrate protein remaining % ≤ 80%)
[4]
  substrate protein remaining % IKZF2: B (80%< substrate protein remaining %≤ 100%)
[5]
  substrate protein remaining % GSPT1: A (0% ≤ substrate protein remaining % ≤ 80%)
[6]
  substrate protein remaining % WEE1: B (80%< substrate protein remaining %≤ 100%)
[7]
  substrate protein remaining % IKZF3: B (80%< substrate protein remaining %≤ 100%)

## O=C1CCN(N2C(=O)c3ccc(CN4CCC(c5ncnc6sccc56)CC4)cc3C2=O)C(=O)N1 [GT-08106, 2-(2,4-dioxotetrahydropyrimidin-1(2H)-yl)-5-((4-(thieno[2,3-d]pyrimidin-4-yl)piperidin-1-yl)methyl)isoindoline-1,3-dione]
[1]
  inhibition at 0.01 µM: 10 to 18%
  inhibition at 0.5 µM: 18 to 25%
[2]
  substrate protein remaining % IKZF1: B (80%< substrate protein remaining %≤ 100%)
[3]
  substrate protein remaining % CK1α: B (80%< substrate protein remaining %≤ 100%)
[4]
  substrate protein remaining % IKZF2: B (80%< substrate protein remaining %≤ 100%)
[5]
  substrate protein remaining % GSPT1: A (0% ≤ substrate protein remaining % ≤ 80%)
[6]
  substrate protein remaining % WEE1: A (0% ≤ substrate protein remaining % ≤ 80%)
[7]
  substrate protein remaining % IKZF3: B (80%< substrate protein remaining %≤ 100%)

## O=C1CCN(N2Cc3cc(CN4CCN(c5ccccc5)CC4)ccc3C2=O)C(=O)N1 [GT-06696, 1-(1-oxo-5-((4-phenylpiperazin-1-yl)methyl)isoindolin-2-yl)dihydropyrimidine-2,4(1H,3H)-dione]
[1]
  IC50: 100 to 300 nM
[2]
  IKZF1 substrate protein remaining %: B ("B" is defined as 80%< substrate protein remaining %≤ 100%)
[3]
  CK1α substrate protein remaining %: B ("B" is defined as 80%< substrate protein remaining %≤ 100%)
[4]
  IKZF2 substrate protein remaining %: B ("B" is defined as 80%< substrate protein remaining %≤ 100%)
[5]
  GSPT1 substrate protein remaining %: A ("A" is defined as 0% ≤ substrate protein remaining % ≤ 80%)
[6]
  WEE1 substrate protein remaining %: B ("B" is defined as 80%< substrate protein remaining %≤ 100%)
[7]
  IKZF3 substrate protein remaining %: B ("B" is defined as 80%< substrate protein remaining %≤ 100%)

## O=C1CCN(N2Cc3cc(CN4CCN(c5ccc(C(F)(F)F)cc5)CC4)ccc3C2=O)C(=O)N1 [GT-06700, 1-(1-oxo-5-((4-(4-(trifluoromethyl)phenyl)piperazin-1-yl)methyl)isoindolin-2-yl)dihydropyrimidine-2,4(1H,3H)-dione]
[1]
  IC50: 50 to 100 nM

## CC1(C)CCC(CN2C3CCC2CN(Cc2ccc4c(c2)C(=O)N(N2CCC(=O)NC2=O)C4=O)C3)=C(c2ccc(Cl)cc2)C1 [GT-07887, 5-((8-((4'-chloro-5,5-dimethyl-3,4,5,6-tetrahydro-[1,1'-biphenyl]-2-yl)methyl)-3,8-diazabicyclo[3.2.1]octan-3-yl)methyl)-2-(2,4-dioxotetrahydropyrimidin-1(2H)-yl)isoindoline-1,3-dione]
[1]
  inhibition at 0.01 µM: 25 to 30%
  inhibition at 0.5 µM: 30 to 40%

## O=C1CCN(N2Cc3cc(CN4CCN(c5ccc(Cl)cc5)CC4)ccc3C2=O)C(=O)N1 [GT-06765, 1-(5-((4-(4-chlorophenyl)piperazin-1-yl)methyl)-1-oxoisoindolin-2-yl)dihydropyrimidine-2,4(1H,3H)-dione]
[1]
  IC50: 500 to 1000 nM
[2]
  IKZF1 substrate protein remaining %: B ("B" is defined as 80%< substrate protein remaining %≤ 100%)
[3]
  CK1α substrate protein remaining %: A ("A" is defined as 0% ≤ substrate protein remaining % ≤ 80%)
[4]
  IKZF2 substrate protein remaining %: B ("B" is defined as 80%< substrate protein remaining %≤ 100%)
[5]
  GSPT1 substrate protein remaining %: B ("B" is defined as 80%< substrate protein remaining %≤ 100%)
[6]
  WEE1 substrate protein remaining %: B ("B" is defined as 80%< substrate protein remaining %≤ 100%)
[7]
  IKZF3 substrate protein remaining %: B ("B" is defined as 80%< substrate protein remaining %≤ 100%)

## O=C1CCN(N2Cc3cc(CN4CCN(c5ccccc5Br)CC4)ccc3C2=O)C(=O)N1 [GT-06766, 1-(5-((4-(2-bromophenyl)piperazin-1-yl)methyl)-1-oxoisoindolin-2-yl)dihydropyrimidine-2,4(1H,3H)-dione]
[1]
  IC50: 500 to 1000 nM
[2]
  IKZF1 substrate protein remaining %: A ("A" is defined as 0% ≤ substrate protein remaining % ≤ 80%)
[3]
  CK1α substrate protein remaining %: A ("A" is defined as 0% ≤ substrate protein remaining % ≤ 80%)
[4]
  IKZF2 substrate protein remaining %: A ("A" is defined as 0% ≤ substrate protein remaining % ≤ 80%)
[5]
  GSPT1 substrate protein remaining %: A ("A" is defined as 0% ≤ substrate protein remaining % ≤ 80%)
[6]
  WEE1 substrate protein remaining %: A ("A" is defined as 0% ≤ substrate protein remaining % ≤ 80%)
[7]
  IKZF3 substrate protein remaining %: A ("A" is defined as 0% ≤ substrate protein remaining % ≤ 80%)

## O=C1CCN(N2Cc3cc(CN4CCN(c5cccc(Br)c5)CC4)ccc3C2=O)C(=O)N1 [GT-06698, 1-(5-((4-(3-bromophenyl)piperazin-1-yl)methyl)-1-oxoisoindolin-2-yl)dihydropyrimidine-2,4(1H,3H)-dione]
[1]
  IC50: 100 to 300 nM
[2]
  IKZF1 substrate protein remaining %: B ("B" is defined as 80%< substrate protein remaining %≤ 100%)
[3]
  CK1α substrate protein remaining %: B ("B" is defined as 80%< substrate protein remaining %≤ 100%)
[4]
  IKZF2 substrate protein remaining %: B ("B" is defined as 80%< substrate protein remaining %≤ 100%)
[5]
  GSPT1 substrate protein remaining %: A ("A" is defined as 0% ≤ substrate protein remaining % ≤ 80%)
[6]
  WEE1 substrate protein remaining %: B ("B" is defined as 80%< substrate protein remaining %≤ 100%)
[7]
  IKZF3 substrate protein remaining %: B ("B" is defined as 80%< substrate protein remaining %≤ 100%)

## O=C1CCN(N2Cc3cc(CN4CCC(c5ccccc5)CC4)ccc3C2=O)C(=O)N1 [GT-06884, 1-(1-oxo-5-((4-phenylpiperidin-1-yl)methyl)isoindolin-2-yl)dihydropyrimidine-2,4(1H,3H)-dione]
[1]
  IC50: 500 to 1000 nM
[2]
  IKZF1 substrate protein remaining %: B ("B" is defined as 80%< substrate protein remaining %≤ 100%)
[3]
  CK1α substrate protein remaining %: B ("B" is defined as 80%< substrate protein remaining %≤ 100%)
[4]
  IKZF2 substrate protein remaining %: B ("B" is defined as 80%< substrate protein remaining %≤ 100%)
[5]
  GSPT1 substrate protein remaining %: A ("A" is defined as 0% ≤ substrate protein remaining % ≤ 80%)
[6]
  WEE1 substrate protein remaining %: B ("B" is defined as 80%< substrate protein remaining %≤ 100%)
[7]
  IKZF3 substrate protein remaining %: B ("B" is defined as 80%< substrate protein remaining %≤ 100%)

## O=C1CCN(N2Cc3cc(CN4CCC(c5cccc(Br)c5)CC4)ccc3C2=O)C(=O)N1 [GT-06885, 1-(5-((4-(3-bromophenyl)piperidin-1-yl)methyl)-1-oxoisoindolin-2-yl)dihydropyrimidine-2,4(1H,3H)-dione]
[1]
  IC50: 100 to 300 nM
[2]
  IKZF1 substrate protein remaining %: A ("A" is defined as 0% ≤ substrate protein remaining % ≤ 80%)
[3]
  CK1α substrate protein remaining %: B ("B" is defined as 80%< substrate protein remaining %≤ 100%)
[4]
  IKZF2 substrate protein remaining %: A ("A" is defined as 0% ≤ substrate protein remaining % ≤ 80%)
[5]
  GSPT1 substrate protein remaining %: A ("A" is defined as 0% ≤ substrate protein remaining % ≤ 80%)
[6]
  WEE1 substrate protein remaining %: B ("B" is defined as 80%< substrate protein remaining %≤ 100%)
[7]
  IKZF3 substrate protein remaining %: B ("B" is defined as 80%< substrate protein remaining %≤ 100%)

## O=C1CCN(N2Cc3cc(CN4CCN(c5cc(Cl)ccc5Cl)CC4)ccc3C2=O)C(=O)N1 [GT-06773, 1-(5-((4-(2,5-dichlorophenyl)piperazin-1-yl)methyl)-1-oxoisoindolin-2-yl)dihydropyrimidine-2,4(1H,3H)-dione]
[1]
  IC50: 100 to 300 nM
[2]
  IKZF1 substrate protein remaining %: B ("B" is defined as 80%< substrate protein remaining %≤ 100%)
[3]
  CK1α substrate protein remaining %: A ("A" is defined as 0% ≤ substrate protein remaining % ≤ 80%)
[4]
  IKZF2 substrate protein remaining %: A ("A" is defined as 0% ≤ substrate protein remaining % ≤ 80%)
[5]
  GSPT1 substrate protein remaining %: A ("A" is defined as 0% ≤ substrate protein remaining % ≤ 80%)
[6]
  WEE1 substrate protein remaining %: A ("A" is defined as 0% ≤ substrate protein remaining % ≤ 80%)
[7]
  IKZF3 substrate protein remaining %: A ("A" is defined as 0% ≤ substrate protein remaining % ≤ 80%)

## Cc1nc(N2CCN(Cc3ccc4c(c3)C(=O)N(N3CCC(=O)NC3=O)C4=O)CC2)c2c3c(sc2n1)CCCC3 [GT-08101, 2-(2,4-dioxotetrahydropyrimidin-1(2H)-yl)-5-((4-(2-methyl-5,6,7,8-tetrahydrobenzo[4,5]thieno[2,3-d]pyrimidin-4-yl)piperazin-1-yl)methyl)isoindoline-1,3-dione]
[1]
  inhibition at 0.01 µM: 18 to 25%
  inhibition at 0.5 µM: 25 to 30%
